{"source": "patent US20240408071A1", "about": "“NOVEL COMBINATION OF SEROTONIN RECEPTOR (5-HTR2B) ANTAGONIST AND AN IMMUNOMODULATOR AND CHEMOTHERAPEUTIC DRUGS FOR INHIBITION OF CANCER” (NATIONAL CENTRE FOR CELL SCIENCE, priority 2021, published 2024)", "system": "MC38 tumor", "experiment": "Adoptive transfer of lymph node cells into NRG mice bearing MC38 and B16F10 tumors: MC38 flank", "assay_type": "in vivo", "settings": "donor mice treated 10 days; tumor-draining lymph node cells; MC38 flank (FIG. 11B)", "method": "FIG. 11 depicts the effect of 5-HTR antagonists on the antigen-specific CTL response MC38 tumor model in mice: (A) Representative experimental plan of the adoptive transfer experiment where NRG mice. In brief, NRG mice were inoculated with MC38 on one flank and B16F10 cells on the other. These mice received total lymph node cells from naïve C57BL/6J mice or MC38 tumor-bearing control or RS-127445 treated mice. (B) Tumor volume data from the above-described experiment was measured and plotted (C) Immunocytochemistry data showing expression of H2-Kb-[…]^+ (red) on MC38 cells transfected with pCL-neo-OVA plasmid on the right side and MC38 cells without transfection. DAPI is used as a counterstain. (D-E) C7BL/6J mice were inoculated with an MC38-ova cell line and treated with RS-127445 or left untreated. After 10 days of such treatment, Total lymph node cells were harvested tagged with CFSE, and cultured in the presence of ovalbumin protein (50 μg/ml) for 5 days. After 5 days cells were checked for CFSE expression by flow cytometry to check proliferation. Here is the data (D) showing the CFSE in CD8^+ cells. The statistical data of the total percentage of CFSE^− CD8 T cells corresponding with the percentage of proliferated CD8 T cells were plotted. […]", "data": [{"smiles": "CC(C)c1cc(-c2ccc(F)c3ccccc23)nc(N)n1", "note": "[RS-127445]", "values": [{"measurement": "MC38 tumor growth after transfer of antagonist primed total immune cells", "result": "able to control MC38 tumor growth"}]}]}
